The target in test [1] is T1, bPepT1 (Bos taurus, UniProt A5D7E5).
T1 construct: expressed in transfected cells; host or cells: CHO cells, transient transfection with pcDNA3.1-bPepT1
T1 sequence (A5D7E5 1-707): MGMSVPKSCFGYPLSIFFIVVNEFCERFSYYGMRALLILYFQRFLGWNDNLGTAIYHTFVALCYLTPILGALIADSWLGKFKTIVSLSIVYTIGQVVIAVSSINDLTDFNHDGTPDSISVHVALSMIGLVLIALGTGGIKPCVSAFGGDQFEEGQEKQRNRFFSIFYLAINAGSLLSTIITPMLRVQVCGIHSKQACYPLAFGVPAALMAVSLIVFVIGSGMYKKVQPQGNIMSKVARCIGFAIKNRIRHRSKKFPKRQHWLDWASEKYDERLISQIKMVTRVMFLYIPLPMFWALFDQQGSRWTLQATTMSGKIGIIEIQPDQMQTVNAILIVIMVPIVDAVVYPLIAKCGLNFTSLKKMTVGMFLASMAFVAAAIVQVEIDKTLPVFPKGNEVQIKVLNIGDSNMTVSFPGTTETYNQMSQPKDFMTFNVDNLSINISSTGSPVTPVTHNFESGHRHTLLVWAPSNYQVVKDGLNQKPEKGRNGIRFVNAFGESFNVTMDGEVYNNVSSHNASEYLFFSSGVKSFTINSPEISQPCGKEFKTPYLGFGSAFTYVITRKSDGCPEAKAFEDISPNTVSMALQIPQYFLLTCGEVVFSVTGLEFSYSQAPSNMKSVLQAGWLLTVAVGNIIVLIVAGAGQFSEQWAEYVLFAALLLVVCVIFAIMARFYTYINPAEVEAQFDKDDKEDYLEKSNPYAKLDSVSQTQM
The test can be described thus: Inhibition of [3H]-Gly-Sar uptake in bPepT1-transfected CHO cells. Type of test: cell-based, bovine (dairy cows). To be noted: for IC50: read-out: IC50 (inhibition of [3H]-Gly-Sar uptake), Bovine. The method, then: (§1) The CHO cells were cultured in F12 Ham’s medium that contained 10% FBS. All cell cultures were maintained at 37 °C and 5% CO2 in a humidified atmosphere. The culture medium was changed every other day. One day before transfection, the CHO cells were passaged and plated onto 12-well plates at a density of 5.0 × 10^4 cells/well. The bPepT1 cDNA [19] was cloned into the pcDNA3.1 expression vector (Invitrogen, Carlsbad, USA). When the CHO cells were cultured to approximately 70–90% confluence, the cells were transfected with the pcDNA3.1-bPepT1 vector or the pcDNA3.1 vector as a control. For each well, 1 μg of DNA was mixed with 2 μL of P3000™ and 1 μL of Lipofectamine 3000 (Invitrogen, Carlsbad, USA) in 50 μL of OPTI-MEM and incubated at room temperature for 5 min. Then, the DNA-lipid complex was added into each well and the cells were transfected for 24 h.
(§2) The transport activity of bPepT1 was determined using [^3H]-Gly-Sar (3.7 × 10^4 Bq/mL), a well-known hydrolysis-resistant peptide substrate, in transiently transfected CHO cells. The transfected cells were washed three times with uptake buffer at pH 6.0 which contained 140 mmol/L NaCl, 5.4 mmol/L KCl, 0.8 mmol/L MgSO4, 1.8 mmol/L CaCl2, 5 mmol/L glucose, and 25 mmol/L MES. Then, the cells were preincubated with the buffer for 30 min at 37 °C.
For the transport time study, the transfected CHO cells were incubated with 0.02 mmol/L of [^3H]-Gly-Sar (3.7 × 10^4 Bq/mL) for various times (1, 5, 10, 20, 40, and 60 min). For the pH dependency study, the pH of the uptake buffer was adjusted to various pH (5.0, 5.5, 6.0, 6.5, 7.0, and 7.5) with HEPES/Tris or MES/Tris. For the transport kinetic study, Gly-Sar was prepared at various concentrations (0.02–10 mmol/L) with 3.7 × 10^4 Bq/mL [^3H]-Gly-Sar. For the inhibition study, 15 small peptides that contained essential AA at five concentrations (0.001–10 mmol/L) were added into the uptake buffer with [^3H]-Gly-Sar, and they were incubated with the CHO cells for 5 min. Then, the concentration of unlabeled peptide that inhibited 50% of [^3H]-Gly-Sar uptake (IC50) was calculated using PRISM software (GraphPad, San Diego, CA, USA). Uptake was stopped by washing with ice-cold uptake buffer. The cells were lysed by adding 0.5 mL lysis buffer that contained 1% Triton X-100, followed by incubation at 37 °C for 60 min. The radioactivity of the cell lysate was measured using liquid scintillation counting (LSC, Wallac1414, Wallac Co., Turku, Finland). The total protein of the cell lysate was determined using a BCA Protein Assay Kit (Beyotime). The uptake was expressed as nmol/(mg protein • 5 min).

Test [2] has as its target T1, bPepT1. The test can be described thus: Time course of [3H]-Gly-Sar uptake in transfected CHO cells. Type of test: cell-based, bovine (dairy cows). To be noted: 0.02 mmol/L; 1–60 min; 24 h after transfection with bPepT1; n = 5. The procedure: as §1, with “Then, the DNA-lipid complex was added into each well and the cells were transfected for 24 h.” left out
(§3) The transport activity of bPepT1 was determined using [^3H]-Gly-Sar (3.7 × 10^4 Bq/mL), a well-known hydrolysis-resistant peptide substrate, in transiently transfected CHO cells. […]
(§4) For the transport time study, the transfected CHO cells were incubated with 0.02 mmol/L of [^3H]-Gly-Sar (3.7 × 10^4 Bq/mL) for various times (1, 5, 10, 20, 40, and 60 min). […] The radioactivity of the cell lysate was measured using liquid scintillation counting (LSC, Wallac1414, Wallac Co., Turku, Finland). The total protein of the cell lysate was determined using a BCA Protein Assay Kit (Beyotime). The uptake was expressed as nmol/(mg protein • 5 min).

For the next test, the system named is CHO cells. The test can be described thus: [3H]-Gly-Sar uptake in CHO cells transfected with pcDNA3.1 control vector. It is filed as cell-based, Chinese hamster. Particulars: 0.02 mmol/L, 1–60 min, n = 5. The method, then:
as §1, with “Then, the DNA-lipid complex was added into each well and the cells were transfected for 24 h.” left out
as §3, §4

Test [3] deals with T1, bPepT1. The test can be described thus: Gly-Sar transport kinetics in bPepT1-transfected CHO cells. Particulars: 5 min, n = 6. Type of test: cell-based, bovine (dairy cows). The procedure: as §1, §2
For the transport time study, the transfected CHO cells were incubated with 0.02 mmol/L of [^3H]-Gly-Sar (3.7 × 10^4 Bq/mL) for various times (1, 5, 10, 20, 40, and 60 min). For the pH dependency study, the pH of the uptake buffer was adjusted to various pH (5.0, 5.5, 6.0, 6.5, 7.0, and 7.5) with HEPES/Tris or MES/Tris. For the transport kinetic study, Gly-Sar was prepared at various concentrations (0.02–10 mmol/L) with 3.7 × 10^4 Bq/mL [^3H]-Gly-Sar. […] The radioactivity of the cell lysate was measured using liquid scintillation counting (LSC, Wallac1414, Wallac Co., Turku, Finland). The total protein of the cell lysate was determined using a BCA Protein Assay Kit (Beyotime). The uptake was expressed as nmol/(mg protein • 5 min).

The target in test [4] is T1, bPepT1. The test can be described thus: pH dependency of Gly-Sar uptake in bPepT1-transfected CHO cells. To be noted: 0.02 mmol/L [3H]-Gly-Sar; pH 5.0–7.5; 5 min; n = 4; P < 0.05. Type of test: cell-based, bovine (dairy cows). The method, then:
as §1, with “Then, the DNA-lipid complex was added into each well and the cells were transfected for 24 h.” left out
as §3, §4

In test [5] the test system is chicken PepT1. Particulars: ref [15], read-out: Km for Gly-Sar, chickens; cited from earlier work. An excerpt:
(§5) These features of bPepT1 met the requirement for transporting a large number of various small peptides. The str ...

Test [6] has as its system sheep PepT1. Particulars: ref [14], read-out: Km for Gly-Sar, sheep; cited from earlier work.
Excerpt: as §5

In another test the test system is pig PepT1. Particulars: CHO cells transfected with pig PepT1 cDNA; CBD = cannot be determined; ref Klang et al. [17]; cited from earlier work. An excerpt:
Table 1 Kinetic parameters of CHO cells transfected with bovine, sheep, pig, and chicken PepT1 cDNA | column: IC50, mmol/L / Pig^d

Test [7] concerns sheep PepT1. To be noted: CHO cells transfected with sheep PepT1 cDNA; ref Chen et al. [14]; cited from earlier work. An excerpt: Table 1 Kinetic parameters of CHO cells transfected with bovine, sheep, pig, and chicken PepT1 cDNA | column: IC50, mmol/L / Sheep^c
For test [8], the system named is chicken PepT1. Particulars: CHO cells transfected with chicken PepT1 cDNA; ref Chen et al. [15]; cited from earlier work. An excerpt:
Table 1 Kinetic parameters of CHO cells transfected with bovine, sheep, pig, and chicken PepT1 cDNA | column: IC50, mmol/L / Chicken^e

[9] abbreviates: 0.02 mmol/L [3H]-Gly-Sar (3.7 × 10^4 Bq/mL), unlabeled peptide 0.001–10 mmol/L, pH 6.0, 5 min, liquid scintillation counting, n = 4 (Fig. 6), CBD = cannot be determined.

Peptide text beside a SMILES is read from it.

For orientation: IC50 means the concentration that inhibits the measured activity by half. What is called Km is the concentration of substrate that gives half-maximal velocity.

In the case of `CSCC[C@H](NC(=O)[C@H](CCSC)NC(=O)CNC(=O)[C@@H](N)CCSC)C(=O)O` [Met-Gly-Met-Met] (H-MGMM-OH), the concentration for half-maximal inhibition (IC50) on bPepT1 [1] (setting [9]) was 6040 µM.

Consider `NCCCC[C@H](NC(=O)[C@@H](N)CCCCN)C(=O)O` [Lys-Lys], for which, on bPepT1 [1] (setting [9]), the 50% inhibitory concentration (IC50) came out at 9650 µM.

Turning to `CSCC[C@H](NC(=O)CN)C(=O)O` [Gly-Met], on bPepT1 [1] (setting [9]), the IC50 was 32 µM.

As to `CSCC[C@H](N)C(=O)N[C@@H](CC(C)C)C(=O)O` [Met-Leu] (H-Met-Leu-OH), the IC50 on bPepT1 [1] (setting [9]) stood at 80 µM.

Regarding `NCC(=O)O` [Gly], the “Inhibition of [3H]-Gly-Sar uptake (in words)” value on bPepT1 [1] (0.02 mmol/L [3H]-Gly-Sar, pH 6.0, 5 min) is “not inhibited”.

As to glycyl-sarcosine [Gly-Sar], the “Time course of [3H]-Gly-Sar uptake” value on bPepT1 [2] was “increased rapidly and linearly in the first 10 min and reached a plateau subsequently”. Moreover, the “[3H]-Gly-Sar uptake in control-vector cells” value in the test on CHO cells is “only marginal, and it was much lower than in CHO cells that were transfected with the bPepT1 expression vector”. For the same compound, the Michaelis-Menten constant (Km) at bPepT1 [3] (Gly-Sar 0.02–10 mmol/L with 3.7 × 10^4 Bq/mL [3H]-Gly-Sar, 37 °C preincubation, Michaelis–Menten, mean ± SEM) was 940 ± 60 µM; with chicken PepT1 [5] it was 2600 ± 300 µM; in the test on sheep PepT1 [6], 1000 ± 100 µM. Also, the “maximum velocity (Vmax)” value at bPepT1 [3] (Gly-Sar 0.02–10 mmol/L with 3.7 × 10^4 Bq/mL [3H]-Gly-Sar, Michaelis–Menten, mean ± SEM) was 20.80 ± 1.74 nmol/(mg protein • 5 min). In addition, the “Gly-Sar concentration at which transport was saturated” value at bPepT1 [3] (Gly-Sar 0.02–10 mmol/L) came out at 5 mmol/L. For the same compound, the “pH dependency of [3H]-Gly-Sar uptake” value on bPepT1 [4] is “pH-dependent and greater at pH 6.5 and 7.0 than at pH 5.5 and 6.0 which was greater than at pH 5.0 and 7.5”.

In the case of `CSCC[C@H](NC(=O)[C@@H](N)CCCCN)C(=O)O` [Lys-Met], the IC50 on bPepT1 [1] (setting [9]) was determined as 32 µM.

Turning to `CSCC[C@H](N)C(=O)N[C@@H](CCCCN)C(=O)O` [Met-Lys] (H-Met-Lys-OH), the IC50 at bPepT1 [1] (setting [9]) is 20 µM.

`CSCC[C@H](N)C(=O)N[C@@H](CCC(=O)O)C(=O)O` [Met-Glu] (H-Met-Glu-OH): the IC50 on bPepT1 [1] (setting [9]) came to 23 µM.

As for `N[C@@H](Cc1c[nH]c2ccccc12)C(=O)N[C@@H](Cc1ccccc1)C(=O)O` [Trp-Phe] (H-Trp-Phe-OH), on bPepT1 [1] (setting [9]), the IC50 came to 14 µM.

`CC(C)C[C@H](N)C(=O)NCC(=O)NCC(=O)O` [Leu-Gly-Gly] (H-Leu-Gly-Gly-OH): the IC50 at bPepT1 [1] (setting [9]) was 2070 µM.

Turning to `CSCC[C@H](N)C(=O)NCC(=O)O` [Met-Gly] (H-Met-Gly-OH), the half-inhibitory concentration (IC50) at bPepT1 [1] (setting [9]) worked out at 58 µM.

With `CSCC[C@H](NC(=O)[C@@H](N)CCSC)C(=O)O` [Met-Met] (H-Met-Met-OH), the 50% inhibitory concentration (IC50) on bPepT1 [1] (setting [9]) came out at 96 µM.

For the compound `NCCCC[C@H](NC(=O)[C@H](Cc1c[nH]c2ccccc12)NC(=O)[C@@H](N)CCCCN)C(=O)O` [Lys-Trp-Lys] (H-Lys-Trp-Lys-OH; N-terminus and C-terminus assumed), the “IC50 (inhibition of [3H]-Gly-Sar uptake), Bovine” value against bPepT1 [1] (setting [9]) is “CBD”. Besides, the IC50 on bPepT1 [1] (setting [9]) was > 2070 µM; in the test on pig PepT1, 2200 µM; in the test on sheep PepT1 [7], 3730 µM; in the test on chicken PepT1 [8], 5900 µM. The “Favorability as substrate / affinity for bPepT1 (in words)” value on bPepT1 [1] (judged from IC50 values) is “less favorable substrates for bPepT1”.

As to `NCCCC[C@H](NC(=O)CN)C(=O)O` [Gly-Lys] (H-Gly-Lys-OH), the IC50 at bPepT1 [1] (setting [9]) came out at 78 µM.

Turning to `CSCC[C@H](N)C(=O)N[C@@H](CC(C)C)C(=O)N[C@@H](Cc1ccccc1)C(=O)O` [Met-Leu-Phe], on bPepT1 [1] (setting [9]), the half-inhibitory concentration (IC50) was found to be 50 µM.

In the case of `NCCCC[C@H](N)C(=O)N[C@@H](Cc1ccccc1)C(=O)O` [Lys-Phe], the IC50 on bPepT1 [1] (setting [9]) came out at 90 µM.

Source of the values: article PMC5778758, “Functional characterization of oligopeptide transporter 1 of dairy cows” (Journal of Animal Science and Biotechnology, 2018).
